Entries after “also recorded” stand apart in the source; their conditions may differ.
Experiments:
[1] = tested on: RTV-644 (RT K101E, G190S); assay: Phenotypic susceptibility assay (patient RTV); format: cell-based, HIV-1; details: for decrease in susceptibility (fold, IC50): patient RTV pool; for change in susceptibility: patient virus vs reference virus
Text: (§1) The resistance test vectors containing a functional luciferase gene cassette were constructed and host cells were transfected with the resistance test vector DNA. The resistant test vectors contained patient-derived reverse transcriptase and protease sequences that were either susceptible or resistant to the antiretroviral agents, such as nucleoside reverse transcriptase inhibitors, non-nucleoside reverse transcriptase inhibitors and protease inhibitors. The resistance test vector viral particles produced by transfecting the resistance test vector DNA into host cells, either in the presence or absence of protease inhibitors, were used to infect target host cells grown either in the absence of NRTI or NNRTI or in the presence of increasing concentrations of the drug. The amount of luciferase activity produced in infected target host cells in the presence of drug was compared to the amount of luciferase produced in infected target host cells in the absence of drug. Drug resistance was measured as the amount of drug required to inhibit by 50% the luciferase activity detected in the absence of drug (inhibitory concentration 50%, IC50). The IC50 values were determined by plotting percent drug inhibition vs. log10 drug concentration.
Host cells were seeded in 10-cm-diameter dishes and were transfected several days after plating with resistance test vector plasmid DNA and the envelope expression vector. Transfections were performed using a calcium-phosphate precipitation procedure. The cell culture media containing the DNA precipitate was replaced with fresh medium, from one to 24 hours, after transfection. Cell culture media containing resistance test vector viral particles was harvested one to four days after transfection and was passed through a […] filter before being stored at […]. HIV capsid protein (p24) levels in the harvested cell culture media were determined by an EIA method as described by the manufacturer (SIAC; Frederick, Md.). Before infection, target cells (293 and 293/T) were plated in cell culture media. […] The inhibitory effect of the drug was determined using the following equation: % luciferase inhibition=1−(RLUluc [drug]÷RLUluc)×100 where RLUluc [drug] is the relative light unit of luciferase activity in infected cells in the presence of drug and RLUluc is the Relative Light Unit of luciferase activity in infected cells in the absence of drug. […]
A resistance test vector was constructed as described in Example 1 from a patient sample designated 97-644. […] RTV-644 was then tested using the phenotypic susceptibility assay to determine accurately and quantitatively the level of susceptibility to a panel of anti-retroviral drugs. […] An IC50 was determined for each drug tested. […]

[2] = tested on: patient 487 virus (RT M184V, K103N); assay: Phenotypic susceptibility assay (patient virus); format: cell-based, HIV; details: patient 487, FIG. 4
Text: Phenotypic drug susceptibility and resistance profile: patient 487. […] This is an example of the first pattern of NNRTI susceptibility/resistance.
(§2) The resistance test vectors containing a functional luciferase gene cassette were constructed and host cells were transfected with the resistance test vector DNA. The resistant test vectors contained patient-derived reverse transcriptase and protease sequences that were either susceptible or resistant to the antiretroviral agents, such as nucleoside reverse transcriptase inhibitors, non-nucleoside reverse transcriptase inhibitors and protease inhibitors. […] The IC50 values were determined by plotting percent drug inhibition vs. log10 drug concentration.
(§3) Host cells were seeded in 10-cm-diameter dishes and were transfected several days after plating with resistance test vector plasmid DNA and the envelope expression vector. […] HIV capsid protein (p24) levels in the harvested cell culture media were determined by an EIA method as described by the manufacturer (SIAC; Frederick, Md.). […] The inhibitory effect of the drug was determined using the following equation: % luciferase inhibition=1−(RLUluc [drug]÷RLUluc)×100 where RLUluc [drug] is the relative light unit of luciferase activity in infected cells in the presence of drug and RLUluc is the Relative Light Unit of luciferase activity in infected cells in the absence of drug. […]

[3] = tested on: P225H-RTV; assay: Phenotypic susceptibility assay (site directed mutant RTV); format: cell-based, HIV-1; details: P225H alone vs wild type control RTV
Text: as §1
(§4) Host cells were seeded in 10-cm-diameter dishes and were transfected several days after plating with resistance test vector plasmid DNA and the envelope expression vector. Transfections were performed using a calcium-phosphate precipitation procedure. The cell culture media containing the DNA precipitate was replaced with fresh medium, from one to 24 hours, after transfection. Cell culture media containing resistance test vector viral particles was harvested one to four days after transfection and was passed through a […] filter before being stored at […]. HIV capsid protein (p24) levels in the harvested cell culture media were determined by an EIA method as described by the manufacturer (SIAC; Frederick, Md.). Before infection, target cells (293 and 293/T) were plated in cell culture media. Control infections were performed using cell culture media from mock transfections (no DNA) or transfections containing the resistance test vector plasmid DNA without the envelope expression plasmid. One to three or more days after infection the media was removed and cell lysis buffer (Promega) was added to each well. Cell lysates were assayed for luciferase activity (FIG. 3). The inhibitory effect of the drug was determined using the following equation: % luciferase inhibition=1−(RLUluc [drug]÷RLUluc)×100 where RLUluc [drug] is the relative light unit of luciferase activity in infected cells in the presence of drug and RLUluc is the Relative Light Unit of luciferase activity in infected cells in the absence of drug. IC50 values were obtained from the sigmoidal curves that were generated from the data by plotting the percent inhibition of luciferase activity vs. the log10 drug concentration. The drug inhibition curves are shown in (FIG. 3).
(§5) Genotypic changes that are observed to correlate with changes in phenotypic patterns of drug susceptibility are evaluated by construction of resistance test vectors containing the specific mutation on a defined, wild-type (drug susceptible) genetic background. Mutations may be incorporated alone and/or in combination with other known drug resistance mutations that are thought to modulate the susceptibility of HIV to a certain drug or class of drugs. Mutations are introduced into the resistance test vector through any of the widely known methods for site-directed mutagenesis. In one embodiment of this invention the mega-primer PCR method for site-directed mutagenesis is used. […]

[4] = tested on: RTV with P236L plus K103N, Y181C or both; assay: as above; format: cell-based, HIV-1; details: P236L with K103N and/or Y181C vs RTV lacking P236L
Text: as §1, §4, §5

[5] = tested on: K103N and Y181C double mutant; assay: as above; format: cell-based, HIV-1; details: FIG. 5
Text: Phenotypic drug susceptibility and resistance profile of site directed reverse transcriptase mutants.
as §2, §3

[6] = tested on: G190S-RTV and G190A-RTV (mutation at codon 190); assay: as above; format: cell-based, HIV-1; details: G190A or G190S vs wild type reference RTV; also statements on codon 190 alone or with 103/101
Method: as §2, §3

SMILES	decrease in susceptibility (fold, IC50) [1] [fold]	change in susceptibility [1]	change in susceptibility [2]	change in susceptibility [3]	change in susceptibility [4]	change in susceptibility [5]	change in susceptibility [6]
CC(C)Nc1cccnc1N1CCN(C(=O)c2cc3cc(NS(C)(=O)=O)ccc3[nH]2)CC1 [delavirdine]	2.5	little or no resistance	increased resistance	more susceptible; also recorded: increase; also recorded: increase3s susceptibility	less susceptible; also recorded: additional reduction; also recorded: severe resistance	further increase in resistance	slightly more susceptible; also recorded: slightly increase susceptibility; also recorded: slight increase
O=C1Nc2ccc(Cl)cc2[C@@](C#CC2CC2)(C(F)(F)F)O1 [efavirenz]					restores a significant portion of the loss of susceptibility		
Cc1ccnc2c1NC(=O)c1cccnc1N2C1CC1 [nevirapine]	600	resistant	increased resistance	No significant change; also recorded: little or no change		further increase in resistance	markedly less susceptible; also recorded: greatly reduce susceptibility; also recorded: large decrease
